According to PubChem BioAssay (NCI):
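Results reflect a 48-hour exposure of cells in 96-well plates to compound at five concentrations. TGI: concentration producing complete growth inhibition.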

How the values were obtained:
Assay in all cases: NCI tumour cell line growth inhibition, 48 h
[1] = system: 786-0 renal
[2] = system: A498 renal
[3] = system: A549 NSCLC
[4] = system: ACHN renal
[5] = system: BT-549 breast
[6] = system: CAKI-1 renal
[7] = system: CCRF-CEM leukemia
[8] = system: COLO 205 colon
[9] = system: DU-145 prostate
[10] = system: EKVX NSCLC
[11] = system: HCC-2998 colon
[12] = system: HCT-116 colon
[13] = system: HCT-15 colon
[14] = system: HL-60(TB) leukemia
[15] = system: HOP-62 NSCLC
[16] = system: HOP-92 NSCLC
[17] = system: HS 578T breast
[18] = system: HT29 colon
[19] = system: IGROV1 ovarian
[20] = system: K-562 leukemia
[21] = system: KM12 colon
[22] = system: LOX IMVI melanoma
[23] = system: M14 melanoma
[24] = system: MALME-3M melanoma
[25] = system: MCF7 breast
[26] = system: MDA-MB-231 breast
[27] = system: MDA-MB-435
[28] = system: MDA-N
[29] = system: MOLT-4 leukemia
[30] = system: NCI-H23 lung
[31] = system: NCI-H460 lung
[32] = system: NCI-H522 lung
[33] = system: NCI/ADR-RES ovarian
[34] = system: OVCAR-3 ovarian
[35] = system: OVCAR-4 ovarian
[36] = system: OVCAR-5 ovarian
[37] = system: OVCAR-8 ovarian
[38] = system: PC-3 prostate
[39] = system: RPMI-8226 leukemia
[40] = system: RXF 393 renal
[41] = system: SF-268 CNS
[42] = system: SF-295 CNS
[43] = system: SF-539 CNS
[44] = system: SK-MEL-2 melanoma
[45] = system: SK-MEL-28 melanoma
[46] = system: SK-MEL-5 melanoma
[47] = system: SK-OV-3 ovarian
[48] = system: SN12C renal
[49] = system: SNB-19 CNS
[50] = system: SR leukemia
[51] = system: SW-620 colon
[52] = system: T-47D breast
[53] = system: TK-10 renal
[54] = system: U251 CNS
[55] = system: UACC-257 melanoma
[56] = system: UACC-62 melanoma
[57] = system: UO-31 renal
[58] = system: NCI-H226 lung
[59] = system: SNB-75 CNS

**Q.** Which results are given for `O=C1O/C(=C\c2ccc(O)c(Br)c2)C(c2ccc(O)c(Cl)c2)=C1Br`?
**A.** TGI [1]: 40.2 µM; TGI [2]: 37.3 µM; TGI [3]: > 100 µM; TGI [4]: 33.2 µM; TGI [5]: 63.1 µM; TGI [6]: 75.2 µM; TGI [7]: 51.1 µM; TGI [8]: 32 µM; TGI [9]: 43 µM; TGI [10]: 49.3 µM; TGI [11]: 16.7 µM; TGI [12]: 26.5 µM; TGI [13]: 25.3 µM; TGI [14]: > 100 µM; TGI [15]: 40.9 µM; TGI [16]: 35.7 µM; TGI [17]: 70.9 µM; TGI [18]: 25.5 µM; TGI [19]: 47.2 µM; TGI [20]: 58.5 µM; TGI [21]: 31.2 µM; TGI [22]: 71.9 µM; TGI [23]: 36.5 µM; TGI [24]: 37.3 µM; TGI [25]: 34.6 µM; TGI [26]: > 100 µM; TGI [27]: 46.5 µM; TGI [28]: 64.9 µM; TGI [29]: > 100 µM; TGI [30]: 54.1 µM; TGI [31]: 48.4 µM; TGI [32]: 28.6 µM; TGI [33]: 75.7 µM; TGI [34]: 33.7 µM; TGI [35]: 25.8 µM; TGI [36]: 33.4 µM; TGI [37]: 90 µM; TGI [38]: 32.7 µM; TGI [39]: 38.6 µM; TGI [40]: 40.9 µM; TGI [41]: 33.7 µM; TGI [42]: 30.4 µM; TGI [43]: 44 µM; TGI [44]: 39.2 µM; TGI [45]: 32 µM; TGI [46]: 29.8 µM; TGI [47]: 40.9 µM; TGI [48]: 86.4 µM; TGI [49]: 66.5 µM; TGI [50]: 28.1 µM; TGI [51]: 34.1 µM; TGI [52]: 47 µM; TGI [53]: 48.3 µM; TGI [54]: 29.8 µM; TGI [55]: 33.3 µM; TGI [56]: 31.6 µM; TGI [57]: 77.4 µM

**Q.** With `O=C(O)CSc1ccc(N=C=S)cc1` as the molecule, how does the TGI [1] read?
**A.** Its TGI is greater than 100 µM.

**Q.** What about the TGI [2] of the same molecule?
**A.** The TGI was greater than 100 µM.

**Q.** What about the TGI [3] of the same molecule?
**A.** The TGI was greater than 100 µM.

**Q.** What about the TGI [4] of the same molecule?
**A.** The TGI was greater than 100 µM.

**Q.** And the TGI [5]?
**A.** Its TGI is greater than 100 µM.

**Q.** What about the TGI [6] of the same molecule?
**A.** The TGI was greater than 100 µM.

**Q.** And the TGI [7]?
**A.** The TGI was 51.5 µM.

**Q.** What about the TGI [8] of the same molecule?
**A.** The TGI was greater than 100 µM.

**Q.** What about the TGI [9] of the same molecule?
**A.** Its TGI is greater than 100 µM.

**Q.** And the TGI [10]?
**A.** The TGI was greater than 100 µM.

**Q.** And the TGI [11]?
**A.** The TGI was greater than 100 µM.

**Q.** And the TGI [12]?
**A.** Its TGI is greater than 100 µM.

**Q.** And the TGI [13]?
**A.** Its TGI is greater than 100 µM.

**Q.** What about the TGI [15] of the same molecule?
**A.** The TGI was greater than 100 µM.

**Q.** What about the TGI [16] of the same molecule?
**A.** The TGI was greater than 100 µM.

**Q.** And the TGI [17]?
**A.** Its TGI is greater than 100 µM.

**Q.** What about the TGI [18] of the same molecule?
**A.** The TGI was greater than 100 µM.

**Q.** And the TGI [19]?
**A.** The TGI was greater than 100 µM.

**Q.** And the TGI [21]?
**A.** Its TGI is greater than 100 µM.

**Q.** What about the TGI [22] of the same molecule?
**A.** Its TGI is greater than 100 µM.

**Q.** And the TGI [23]?
**A.** The TGI was greater than 100 µM.

**Q.** What about the TGI [24] of the same molecule?
**A.** Its TGI is 84 µM.

**Q.** And the TGI [25]?
**A.** The TGI was greater than 100 µM.

**Q.** And the TGI [26]?
**A.** Its TGI is greater than 100 µM.

**Q.** What about the TGI [27] of the same molecule?
**A.** Its TGI is greater than 100 µM.

**Q.** What about the TGI [28] of the same molecule?
**A.** Its TGI is greater than 100 µM.

**Q.** What about the TGI [29] of the same molecule?
**A.** Its TGI is greater than 100 µM.

**Q.** What about the TGI [58] of the same molecule?
**A.** The TGI was greater than 100 µM.

**Q.** What about the TGI [30] of the same molecule?
**A.** Its TGI is greater than 100 µM.

**Q.** What about the TGI [31] of the same molecule?
**A.** The TGI was greater than 100 µM.

**Q.** What about the TGI [32] of the same molecule?
**A.** Its TGI is greater than 100 µM.

**Q.** What about the TGI [33] of the same molecule?
**A.** The TGI was greater than 100 µM.

**Q.** And the TGI [34]?
**A.** The TGI was greater than 100 µM.

**Q.** And the TGI [35]?
**A.** Its TGI is greater than 100 µM.

**Q.** What about the TGI [36] of the same molecule?
**A.** The TGI was greater than 100 µM.

**Q.** What about the TGI [37] of the same molecule?
**A.** The TGI was greater than 100 µM.

**Q.** What about the TGI [38] of the same molecule?
**A.** The TGI was greater than 100 µM.

**Q.** What about the TGI [39] of the same molecule?
**A.** Its TGI is 57.1 µM.

**Q.** And the TGI [40]?
**A.** Its TGI is greater than 100 µM.

**Q.** And the TGI [41]?
**A.** Its TGI is greater than 100 µM.

**Q.** And the TGI [42]?
**A.** Its TGI is greater than 100 µM.

**Q.** What about the TGI [43] of the same molecule?
**A.** Its TGI is 77.1 µM.

**Q.** And the TGI [44]?
**A.** The TGI was greater than 100 µM.

**Q.** And the TGI [45]?
**A.** Its TGI is greater than 100 µM.

**Q.** What about the TGI [46] of the same molecule?
**A.** Its TGI is greater than 100 µM.

**Q.** What about the TGI [47] of the same molecule?
**A.** The TGI was greater than 100 µM.

**Q.** What about the TGI [48] of the same molecule?
**A.** Its TGI is greater than 100 µM.

**Q.** And the TGI [49]?
**A.** The TGI was greater than 100 µM.

**Q.** What about the TGI [59] of the same molecule?
**A.** Its TGI is greater than 100 µM.

**Q.** What about the TGI [50] of the same molecule?
**A.** The TGI was 47.5 µM.

**Q.** What about the TGI [51] of the same molecule?
**A.** Its TGI is greater than 100 µM.

**Q.** And the TGI [52]?
**A.** Its TGI is greater than 100 µM.

**Q.** What about the TGI [53] of the same molecule?
**A.** The TGI was greater than 100 µM.

**Q.** What about the TGI [54] of the same molecule?
**A.** Its TGI is greater than 100 µM.

**Q.** What about the TGI [55] of the same molecule?
**A.** The TGI was greater than 100 µM.

**Q.** What about the TGI [56] of the same molecule?
**A.** Its TGI is greater than 100 µM.

**Q.** What about the TGI [57] of the same molecule?
**A.** The TGI was greater than 100 µM.

**Q.** What does the source list for `CCOC(=O)c1cn2c(n1)sc1cc(C)c(C)cc12`?
**A.** TGI [1]: 34.9 µM; TGI [2]: 32.6 µM; TGI [3]: 38.2 µM; TGI [4]: 35.3 µM; TGI [5]: 72.4 µM; TGI [6]: 39.4 µM; TGI [7]: > 100 µM; TGI [8]: 55 µM; TGI [9]: 48.8 µM; TGI [10]: 61.7 µM; TGI [11]: > 100 µM; TGI [12]: 33.7 µM; TGI [13]: > 100 µM; TGI [15]: 34.3 µM; TGI [16]: 65.4 µM; TGI [17]: 79.3 µM; TGI [18]: 33.8 µM; TGI [19]: 56.5 µM; TGI [20]: > 100 µM; TGI [21]: > 100 µM; TGI [22]: > 100 µM; TGI [23]: 85.2 µM; TGI [24]: 35.1 µM; TGI [25]: > 100 µM; TGI [26]: 58.4 µM; TGI [27]: > 100 µM; TGI [28]: 22 µM; TGI [29]: 91.1 µM; TGI [58]: 44.9 µM; TGI [30]: > 100 µM; TGI [31]: > 100 µM; TGI [32]: 94.4 µM; TGI [33]: 67.5 µM; TGI [34]: 32.5 µM; TGI [35]: > 100 µM; TGI [36]: 36.4 µM; TGI [37]: 52.3 µM; TGI [38]: 45.7 µM; TGI [39]: 82.7 µM; TGI [40]: 51.2 µM; TGI [41]: 52.7 µM; TGI [42]: > 100 µM; TGI [43]: 29.6 µM; TGI [44]: > 100 µM; TGI [45]: 48.4 µM; TGI [46]: 32.1 µM; TGI [47]: 69.2 µM; TGI [48]: 36.8 µM; TGI [49]: 42.9 µM; TGI [59]: 44.8 µM; TGI [50]: > 100 µM; TGI [51]: 65.1 µM; TGI [52]: 62.1 µM; TGI [53]: 57.1 µM; TGI [54]: 41.2 µM; TGI [55]: > 100 µM; TGI [56]: > 100 µM; TGI [57]: 35.4 µM
